Literature values, collected in patent US20040202705A1 (priority 1999, published 2004).

Conditions: human, in vivo

Nc1c2c(nc3ccccc13)CCCC2 [Tacrine]
Patients with reversible hepatotoxicity: approximately 30%
